Two compounds from ChEMBL document CHEMBL1149928, “Stabilization of a prostaglandin tertiary allylic alcohol system by fluorine: synthesis, acid stability studies and pharmacology of a 16-fluoromethyl analog of SC-46275” (1992) can be followed below.

SMILES strings stand for the structures.

Test [1] has as its system Canis familiaris. Briefly: Compound was evaluated for the gastric antisecretory activity in food stimulated Pavlov pouch dogs by intrapouch administration. Format: functional. To be noted: Canis lupus familiaris, Stomach.
For test [2], the system named is Rattus norvegicus. Briefly: Compound was evaluated for the diarrheal effects in adult male rats by intragastric administration. Format: functional. The note with it: po.

In general, ED50 refers to the midpoint of the dose-response relation. For `COC(=O)CC/C=C\CC[C@H]1C(=O)C[C@@H](O)[C@@H]1/C=C/C[C@@](O)(/C=C/C1=CCCC1)CF`, the results for the ED50 in test [1] and in test [2] were 0.05 µg/kg and more than 3160 µg/kg, respectively.

For `COC(=O)CC/C=C\CC[C@H]1C(=O)C[C@@H](O)[C@@H]1/C=C/C[C@@](C)(O)/C=C/C1=CCCC1`, the values for the ED50 in test [1] and in test [2] were 0.01 µg/kg and more than 3160 µg/kg, respectively.
